Measured values: patent US20020146823A1, “Method for promoting hematopoietic and mesenchymal cell proliferation and differentiation” (The University of Southern California, priority 1997, published 2002)

How the values were obtained:
[1] = system: Murine Peritoneal Macrophages; assay: Phagocytic capability of murine peritoneal macrophages (opsonized yeast ingestion); type: cell-based, C57B1/6 mice
Procedure: Resident peritoneal macrophages have very little phagocytic activity. Exposure of macrophages to inflammatory or activating agents will increase this macrophage function. Resident peritoneal macrophages were harvested from C57B1/6 mice or Sprague Dawley rats and resuspended at a concentration of 1×10^6 cells/ml in phosphate buffered saline (PBS). Five separate 0.5 ml cell aliquots were placed on a glass coverslip in a 35 mm petri dish. Prior to incubation, either 0.5 ml of PBS, AII, or AII analogues or fragments at between 1-1000 ug/ml final concentration was added to the individual cover slips. The dishes containing the cover slips were then incubated at 37° C. for 4 hours, after which the cover slips were washed 3 to 6 times with PBS. Opsonized yeast particles (Sigma Chemical Co.) (yeast opsonized with adult serum from the same species as that under study) were added to the cover slips and incubated for 2 hours, after which the cover slips were again washed with PBS and inverted onto a glass slide. The number of macrophages that ingested yeast and the number of yeast per macrophage ingested was then determined microscopically. At least 100 macrophages per coverslip were counted. The data from this study are summarized in Tables 3 and 4 and FIGS. 1 and 2.

rat MSC = assay: Rat mesenchymal stem cell proliferation in bone marrow cultures; type: cell-based, Sprague Dawley rats; conditions: 1 to 100 μg/ml
Procedure: These studies were conducted to determine the effect that AII would have on the proliferation of MSC. Bone marrow cells were harvested from the femur and tibia of female Sprague Dawley rats by flushing the bones with Dulbecco's Minimal Essential Medium-High Glucose (“DMEM-HG”) with a syringe and an 18 gauge needle. These cells were cultured in 24 well plates at 5×10^3 cells/mm^2 in DMEM-HG containing selected lots of fetal calf serum (FCS) and antibiotics (complete medium) at 37° C. incubator containing 5% CO2 in air. Twenty-four hours after the initiation of the cultures the medium and nonadherent cells were aspirated and fresh medium was added. To each of these several wells, complete medium with (1 to 100 μg/ml) or without AII was added. The migration of cells from the clones and their proliferation was followed by microscopic examination. Every 4 days the old medium was removed and fresh medium was added to the cultures. These studies were conducted to determine the effect that inclusion of All analogues and fragments in the cell culture of MSC would have on the proliferation of these cells. Bone marrow cells were harvested from the femur and tibia of female Sprague Dawley rats by flushing the bones with Dulbecco's Minimal Essential Medium-High Glucose (“DMEM-HG”) with a syringe and an 18 gauge needle. […]

rat bone marrow MSC = assay: Alkaline phosphatase expression by MSC in osteogenic medium; type: cell-based, Sprague Dawley rats; conditions: osteogenic medium 4 days
Procedure: Bone marrow from female Sprague Dawley rats were harvested by flushing the femur with medium. The cells were placed in culture dishes […], allowed to adhere overnight, and then placed in DMEM-LG medium containing antibiotics and 10% fetal calf serum together with varying concentrations of AII. At various times after culture initiation, the cells were washed with Tyrode's buffer and placed in osteogenic medium (DMEM-LG containing 10% fetal calf serum, 100 nM dexamethasone and 0.05 mM ascorbic acid) for 4 days prior to assessment of the level of alkaline phosphatase activity per well. Briefly, the wells were washed with Tyrode's buffer and 1 ml alkaline phosphatase substrate solution (50 mM glycine, pH 10.5, containing 1 mM magnesium chloride and 2.5 mM p-nitrophenyl phosphate) to each well. Fifteen minutes after addition of this aqueous substrate, the buffer was removed from the culture and mixed with 1 ml of 1N sodium hydroxide to stop the reaction. The absorbance of the resultant mixture at […] was then determined via spectroscopy. The level of alkaline phosphatase activity is expressed as the level of absorbance per culture dish.

Asp-Arg-Val-Tyr-Ile-His-Pro-Phe (DRVYIHPF; printed: Asp-Arg-Val-Tyr-Ile-His-Pro-Phe) [AII, octapeptide present in humans and other species; known pressor agent, commercially available]
# Macrophages with Yeast, Yeast # 0 ([1]; AII 10 μg/ml): 100
# Macrophages with Yeast, Yeast # 7-9 ([1]; AII 10 μg/ml): 0
# Macrophages with Yeast, Yeast # 0 ([1]; AII 100 μg/ml): 100
# Macrophages with Yeast, Yeast # 7-9 ([1]; AII 100 μg/ml): 0
% Ingesting ([1]; AII 100 μg/ml): 16.7%
# Macrophages with Yeast, Yeast # 0 ([1]; AII 1000 μg/ml): 100
# Macrophages with Yeast, Yeast # 7-9 ([1]; AII 1000 μg/ml): 0
% Ingesting ([1]; AII 1000 μg/ml): 25.6%
phagocytic capability of peritoneal macrophages ([1]; exposure to 10 μg/ml or greater): tremendously increased
% phagocytic ([1]; highest concentration): over 25%
yeast observed per macrophage, on average ([1]; highest concentration): ~1
increase in the number of macrophages able to phagocytose ([1]; highest concentration vs resident population): 25 fold
number of MSC (rat MSC; all time points examined): increase in the number of MSC in a concentration dependent manner
number of sites from which MSC were migrating (CFU) and size (number of cells) of colonies formed (rat MSC; complete medium with serum): significantly increased
proliferation of cells that express alkaline phosphatase (rat bone marrow MSC): can accelerate the proliferation of cells that express alkaline phosphatase
